Laboratory results reported in patent US12729377B2, “RNAi agents and compositions for inhibiting expression of angiopoietin-like 3 (ANGPTL3), and methods of use” (Arrowhead Pharmaceuticals, Inc., priority 2017, dated 2026).
In the oligonucleotide strings, read from the 5' end, every base follows the letter of its sugar. An asterisk marks phosphorothioate; unmarked linkages are phosphodiester. Other units and linkages are bracketed, terminal groups are in braces. A string of capitals states the bases alone. {NAG37} = tridentate N-acetyl-galactosamine targeting ligand, structure (NAG37)s; [invAb] = inverted abasic unit; m = 2'-O-methyl; f = 2'-fluoro

Experiments:
[1] = test system: ANGPTL3 protein; test: Example 8: serum ANGPTL3 protein by ELISA in cynomolgus monkeys; assay type: in vivo, cynomolgus macaque (Macaca fascicularis); settings: for Avg ANGPTL3 protein normalized to pre-treatment: 3.0 mg/kg single SC injection day 1, cynos, n=2; for reduction in ANGPTL3 protein compared to pre-treatment: all measured time points, single 3.0 mg/kg subcutaneous, cynomolgus monkeys
Method: (§1) Additional ANGPTL3 RNAi agents were evaluated in cynomolgus monkeys. On day 1, cynomolgus macaque (Macaca fascicularis) primates (also referred to herein as “cynos”) were administered a single subcutaneous injection of 0.3 mL/kg (approximately 1-2 mL volume, depending on animal mass) containing 3.0 mg/kg of one of ANGPTL3 RNAi agent AD05577, AD05307, AD05488, AD05654, or AD05659, each formulated in saline.
(§2) Two (2) cynos in each group were tested (n=2). Blood samples were drawn and serum samples were analyzed on days −8 (pre-dose), 1 (pre-dose), 8, 15, 22, 29, and 36. Cynos were fasted overnight prior to each collection. ANGPTL3 protein levels in serum were measured by ELISA assay (R&D Systems), according to the manufacturer's recommendations. Triglycerides, total cholesterol, high-density lipoprotein (HDL), and low-density lipoprotein (LDL) in serum were measured on a Cobas® Integra 400 (Roche Diagnostics), according to the manufacturer's recommendations.
(§3) The ANGPTL3 protein levels, triglyceride levels, total cholesterol levels, HDL levels, and LDL levels for each animal were normalized. For normalization, the level of ANGPTL3 protein, triglyceride, HDL, and total cholesterol, respectively, for each animal at a time point, was divided by the average pre-treatment level of expression in that animal (in this case at days −8, and 1 (pre-dose)) to determine the ratio of expression “normalized to pre-treatment.”

[2] = test system: ANGPTL3 gene; test: Example 8: serum triglycerides in cynomolgus monkeys; assay type: in vivo, cynomolgus macaque (Macaca fascicularis); settings: 3.0 mg/kg single SC injection day 1, cynos, n=2
Method: as §1, §2, §3

[3] = test system: ANGPTL3 gene; test: Example 2: serum triglycerides in mice; assay type: in vivo
Method: (§4) To assess the in vivo activity of ANGPTL3 RNAi agents that are designed to target different positions on the ANGPTL3 gene, six- to eight-week-old female C57bl/6 mice were used. Pre-dose serum samples were taken at day −1 after a four hour fast. At day 1, each mouse was given a single subcutaneous administration of 200 μl containing either 3 mg/kg (mpk) of an ANGPTL3 RNAi agent in D5W (dextrose in 5% water), or control (D5W) with no RNAi agent, according to the dosing groups recited in Table 7.
(§5) Each of the RNAi agents included a modified sequence and an N-acetyl-galactosamine-containing targeting ligand conjugated to the 5′ terminal end of the sense strand. (See Tables 3, 4, and 5 for modified sequences and targeting ligand structures). The injections were performed between the skin and muscle (i.e. subcutaneous injections) into the loose skin over the neck and shoulder area. Three (3) mice in each group were tested (n=3). Serum was collected on days 8, […], 22, 29, and day 36 (for Groups 1 and 5-11 only). Mice were fasted for four hours prior to each collection. ANGPTL3 protein levels in serum were measured by ELISA assay (R&D Systems), according to the manufacturer's recommendations. Triglycerides, high-density lipoprotein (HDL), and total cholesterol in serum were measured on a Cobas® Integra 400 (Roche Diagnostics), according to the manufacturer's recommendations.
(§6) The ANGPTL3 protein levels, triglyceride levels, HDL levels, and total cholesterol levels for each animal were normalized. For normalization, the level of ANGPTL3 protein, triglyceride, HDL, and total cholesterol, respectively, for each animal at a time point, was divided by the pre-treatment level of expression in that animal (in this case at day −1) to determine the ratio of expression “normalized to pre-treatment.” Expression at a specific time point was then normalized to the D5W control group by dividing the “normalized to pre-treatment” ratio for an individual animal by the mean “normalized to pretreatment” ratio of all mice in the D5W control group.

[4] = test system: ANGPTL3 gene; test: Example 2: serum HDL in mice; assay type: in vivo
Method: as §4, §5, §6

[5] = test system: ANGPTL3 gene; test: Example 2: serum total cholesterol in mice; assay type: in vivo
Method: as §4, §5, §6

[6] = test system: ANGPTL3 protein; test: Example 2: serum ANGPTL3 protein by ELISA in mice; assay type: in vivo, C57bl/6 mice; settings: for Avg ANGPTL3 (Average ANGPTL3 Protein Normalized to Pre-Treatment and Control): 3.0 mg/kg single subcutaneous dose on day 1, serum, female C57bl/6 mice
Method: as §4, §5, §6

[7] = Day 8, 3.0 mg/kg single subcutaneous dose on day 1, female C57bl/6 mice
[8] = Day 13, 3.0 mg/kg single subcutaneous dose on day 1, female C57bl/6 mice
[9] = Day 22, 3.0 mg/kg single subcutaneous dose on day 1, female C57bl/6 mice
[10] = Day 29, 3.0 mg/kg single subcutaneous dose on day 1, female C57bl/6 mice
[11] = Day 36, 3.0 mg/kg single subcutaneous dose on day 1, female C57bl/6 mice
[12] = day 29, single 3 mg/kg subcutaneous, C57bl/6 mice

| Substance | Avg ANGPTL3 protein normalized to pre-treatment ([1]; Day 8) | Avg ANGPTL3 protein normalized to pre-treatment ([1]; Day 15) | Avg ANGPTL3 protein normalized to pre-treatment ([1]; Day 22) | Avg ANGPTL3 protein normalized to pre-treatment ([1]; Day 29) | Avg ANGPTL3 protein normalized to pre-treatment ([1]; Day 36) | reduction in ANGPTL3 protein compared to pre-treatment [1] | Avg TG normalized to pre-treatment ([2]; Day 8) | Avg TG normalized to pre-treatment ([2]; Day 15) | Avg TG normalized to pre-treatment ([2]; Day 22) | Avg TG normalized to pre-treatment ([2]; Day 29) | Avg TG normalized to pre-treatment ([2]; Day 36) | Avg TG (Average Triglycerides Normalized to Pre-Treatment and Control) [3, 7] | Avg TG (Average Triglycerides Normalized to Pre-Treatment and Control) [3, 8] | Avg TG (Average Triglycerides Normalized to Pre-Treatment and Control) [3, 9] | Avg TG (Average Triglycerides Normalized to Pre-Treatment and Control) [3, 10] | Avg TG (Average Triglycerides Normalized to Pre-Treatment and Control) [3, 11] | Avg HDL (Average HDL Normalized to Pre-Treatment and Control) [4, 7] | Avg HDL (Average HDL Normalized to Pre-Treatment and Control) [4, 8] | Avg HDL (Average HDL Normalized to Pre-Treatment and Control) [4, 9] | Avg HDL (Average HDL Normalized to Pre-Treatment and Control) [4, 10] | also measured |
| --- | --- | --- | --- | --- | --- | --- | --- | --- | --- | --- | --- | --- | --- | --- | --- | --- | --- | --- | --- | --- | --- |
| AD05307: RNAi agent duplex: antisense AM07001-AS, sense AM07000-SS (chain 1 mU*fU*mU*fGmAfAmUfUmAfAmUfGmUfCmCfAmUfGmGmG*mC; chain 2 {NAG37}*[invAb]*mGmCmCmCmAmUmGmGfAfCfAmUmUmAmAmUmUmCmAmAmA*[invAb]) | 0.486 | 0.402 | 0.726 | 0.518 | 0.392 | reduction | 1.157 | 1.058 | 0.895 | 0.969 | 0.806 | 0.504 | 0.655 | 0.459 | 0.629 | 0.602 | 0.633 | 0.524 | 0.588 | 0.724 | Avg HDL (Average HDL Normalized to Pre-Treatment and Control) [4, 11]: 0.702; Avg Total Chol (Average Total Cholestrol Normalized to Pre-Treatment and Control) [5, 7]: 0.649; Avg Total Chol (Average Total Cholestrol Normalized to Pre-Treatment and Control) [5, 8]: 0.570; Avg Total Chol (Average Total Cholestrol Normalized to Pre-Treatment and Control) [5, 9]: 0.628; Avg Total Chol (Average Total Cholestrol Normalized to Pre-Treatment and Control) [5, 10]: 0.753; Avg Total Chol (Average Total Cholestrol Normalized to Pre-Treatment and Control) [5, 11]: 0.755; Avg ANGPTL3 (Average ANGPTL3 Protein Normalized to Pre-Treatment and Control) ([6]; Day 8): 0.117; Avg ANGPTL3 (Average ANGPTL3 Protein Normalized to Pre-Treatment and Control) ([6]; Day 13): 0.120; Avg ANGPTL3 (Average ANGPTL3 Protein Normalized to Pre-Treatment and Control) ([6]; Day 22): 0.134; Avg ANGPTL3 (Average ANGPTL3 Protein Normalized to Pre-Treatment and Control) ([6]; Day 29): 0.206; Avg ANGPTL3 (Average ANGPTL3 Protein Normalized to Pre-Treatment and Control) ([6]; Day 36): 0.216; ANGPTL3 protein normalized to pre-treatment and control [6, 12]: 0.206 |
| AD05308: RNAi agent duplex: antisense AM07003-AS, sense AM07002-SS (chain 1 mU*fG*mU*fUmGfAmAfUmUfAmAfUmGfUmCfCmAfUmGfG*mA; chain 2 {NAG37}*[invAb]*mUmCmCmAmUmGmGmAfCfAfUmUmAmAmUmUmCmAmAmCmA*[invAb]) | – | – | – | – | – | – | – | – | – | – | – | 0.375 | 0.554 | 0.399 | 0.473 | 0.430 | 0.634 | 0.583 | 0.572 | 0.606 | Avg HDL (Average HDL Normalized to Pre-Treatment and Control) [4, 11]: 0.854; Avg Total Chol (Average Total Cholestrol Normalized to Pre-Treatment and Control) [5, 7]: 0.671; Avg Total Chol (Average Total Cholestrol Normalized to Pre-Treatment and Control) [5, 8]: 0.645; Avg Total Chol (Average Total Cholestrol Normalized to Pre-Treatment and Control) [5, 9]: 0.621; Avg Total Chol (Average Total Cholestrol Normalized to Pre-Treatment and Control) [5, 10]: 0.669; Avg Total Chol (Average Total Cholestrol Normalized to Pre-Treatment and Control) [5, 11]: 0.905; Avg ANGPTL3 (Average ANGPTL3 Protein Normalized to Pre-Treatment and Control) ([6]; Day 8): 0.106; Avg ANGPTL3 (Average ANGPTL3 Protein Normalized to Pre-Treatment and Control) ([6]; Day 13): 0.076; Avg ANGPTL3 (Average ANGPTL3 Protein Normalized to Pre-Treatment and Control) ([6]; Day 22): 0.084; Avg ANGPTL3 (Average ANGPTL3 Protein Normalized to Pre-Treatment and Control) ([6]; Day 29): 0.088; Avg ANGPTL3 (Average ANGPTL3 Protein Normalized to Pre-Treatment and Control) ([6]; Day 36): 0.167; ANGPTL3 protein normalized to pre-treatment and control [6, 12]: 0.088; reduction in ANGPTL3 protein compared to control [6, 12]: approximately 91% |
| AD05488: RNAi agent duplex: antisense AM07235-AS, sense AM07234-SS (antisense mU*fA*mC*fUmGfAmUfCmAfAmAfUmAfUmGfUmUfGmAfG*mC; sense {NAG37}*[invAb]*mGmCmUmCmAmAmCmAfUfAfUmUmUmGmAmUmCmAmGmUmA*[invAb]) | 0.423 | 0.334 | 0.343 | 0.276 | 0.229 | reduction | 0.727 | 0.586 | 0.399 | 0.534 | 0.364 | – | – | – | – | – | – | – | – | – | – |
